From patent US20100280056A1, “IDENTIFICATION OF SUBJECTS LIKELY TO BENEFIT FROM STATIN THERAPY” (The Govt. of the U. S. as Represented by the Secretary of …, priority 2007, published 2010)

System: colon cancer cell lines
Assay: Total cholesterol content of colon cancer cell lines with and without atorvastatin (Cholesterol/Cholesteryl Ester Quantification Kit)
Format: cell-based
Conditions: 25 μM atorvastatin, 24 hours, serum-free medium; cell lines with rs12654264 A allele compared to T allele (FIG. 4)
Experimental: Microsatellite stable (MSS) colon cancer cell lines (SW480, SW620, HT29, WiDr, and SW1417) were cultured in RPMI (supplemented with 10% Fetal Bovine Serum, 100 IU/mL of Penicillin, 100 IU/mL of Streptomycin, and 1× Non-Essential Amino Acid) at 37° C. in an atmosphere of 5% CO2. The cells were trypsinized and washed with PBS twice. […] The cholesterol level of each colon cancer line was measured using Cholesterol/Cholesteryl Ester Quantification Kit from Abcam (Cambridge, Mass.). Cells were plated into 6-well plates to reach approximate confluency of 70%. After overnight incubation, the cells were treated with 25 μM atorvastatin diluted in serum-free DMEM/F12 50:50 (supplemented with 100 IU/mL of Penicillin, 100 IU/mL of Streptomycin, and 1× Non-Essential Amino Acid) for 24 hours at 37° C., 5% CO2. After treatment, the cells were trypsinized and counted to 1×10^6 cells. The cells were pelleted, washed with PBS twice, and resuspended in 200 μl of pure chloroform with 1% Triton® X-100. The cell suspension was vortexed for 15 seconds, and centrifuged at maximum speed for 10 minutes. The lower (organic) phase was collected and air dried at 50° C., followed by vacuum drying for 30 minutes to remove the chloroform. The dried lipids were resuspended with 100 μl of the Cholesterol Reaction Buffer provided in the kit, and vortexed for 5 minutes vigorously at room temperature. […]

## CC(C)c1c(C(=O)Nc2ccccc2)c(-c2ccccc2)c(-c2ccc(F)cc2)n1CC[C@@H](O)C[C@@H](O)CC(=O)O [atorvastatin]
  statin-dependent cholesterol reduction: significantly greater statin-dependent cholesterol reduction
